What was measured:
[1] = biological target: Multidrug resistance-associated protein 1 (Homo sapiens, UniProt P33527); assay: TP_TRANSPORTER: inhibition of CFDA efflux (CFDA: 1 uM, DHT: 5-50 uM) in HL60/Adr cells; format: functional, cell-based
[2] = biological target: Multidrug resistance-associated protein 1 (MRP1) (Homo sapiens, UniProt P33527); assay: TP_TRANSPORTER: inhibition of CFDA efflux (CFDA: 1 uM, Genistein: 10 mM) in HL60/Adr cells; format: functional, cell-based; details: probe CFDA, read-out: Activity
Multidrug resistance-associated protein 1 (MRP1), sequence (P33527 whole entry): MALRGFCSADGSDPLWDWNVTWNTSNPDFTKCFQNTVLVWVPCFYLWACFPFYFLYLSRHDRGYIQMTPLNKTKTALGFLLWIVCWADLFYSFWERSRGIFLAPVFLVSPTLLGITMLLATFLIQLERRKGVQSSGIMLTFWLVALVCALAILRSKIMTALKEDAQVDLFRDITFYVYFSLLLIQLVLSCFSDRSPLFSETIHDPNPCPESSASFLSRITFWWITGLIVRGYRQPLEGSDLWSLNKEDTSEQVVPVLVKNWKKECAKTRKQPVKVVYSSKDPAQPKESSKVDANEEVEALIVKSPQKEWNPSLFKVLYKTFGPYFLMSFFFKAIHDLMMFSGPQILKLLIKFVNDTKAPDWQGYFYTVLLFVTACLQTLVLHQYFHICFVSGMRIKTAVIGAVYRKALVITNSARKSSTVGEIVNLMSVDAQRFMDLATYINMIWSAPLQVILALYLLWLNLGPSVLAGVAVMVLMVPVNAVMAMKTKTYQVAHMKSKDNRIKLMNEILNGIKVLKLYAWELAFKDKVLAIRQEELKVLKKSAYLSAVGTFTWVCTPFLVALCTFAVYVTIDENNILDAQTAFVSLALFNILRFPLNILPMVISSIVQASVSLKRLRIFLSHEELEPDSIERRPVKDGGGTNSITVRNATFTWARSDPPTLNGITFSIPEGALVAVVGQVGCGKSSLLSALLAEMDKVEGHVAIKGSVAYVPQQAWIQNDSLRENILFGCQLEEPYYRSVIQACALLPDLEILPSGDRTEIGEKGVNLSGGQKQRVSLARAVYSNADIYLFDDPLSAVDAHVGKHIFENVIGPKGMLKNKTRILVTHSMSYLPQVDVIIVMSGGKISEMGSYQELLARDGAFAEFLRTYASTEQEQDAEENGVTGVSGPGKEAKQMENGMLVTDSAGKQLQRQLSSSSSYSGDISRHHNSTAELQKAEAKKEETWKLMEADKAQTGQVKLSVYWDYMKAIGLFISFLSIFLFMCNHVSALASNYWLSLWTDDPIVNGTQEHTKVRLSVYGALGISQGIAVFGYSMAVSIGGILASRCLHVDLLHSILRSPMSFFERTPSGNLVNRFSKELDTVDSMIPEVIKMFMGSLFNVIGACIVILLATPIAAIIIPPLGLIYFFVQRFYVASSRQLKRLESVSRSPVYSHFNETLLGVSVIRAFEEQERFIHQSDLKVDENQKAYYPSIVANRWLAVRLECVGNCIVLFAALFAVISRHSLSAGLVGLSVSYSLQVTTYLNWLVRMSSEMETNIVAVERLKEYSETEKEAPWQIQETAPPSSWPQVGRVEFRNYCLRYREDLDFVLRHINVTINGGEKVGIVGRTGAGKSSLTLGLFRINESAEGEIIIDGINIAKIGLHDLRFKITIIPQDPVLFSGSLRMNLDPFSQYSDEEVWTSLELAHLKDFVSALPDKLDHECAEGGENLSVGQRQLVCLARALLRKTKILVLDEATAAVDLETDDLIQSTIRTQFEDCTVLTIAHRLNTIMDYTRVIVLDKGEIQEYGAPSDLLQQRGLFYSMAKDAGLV

Multidrug resistance-associated protein 1, sequence (P33527 whole entry): as above

inhibition at 10 mM [2] [%]	Compound	Activity [1]
	C=C(CC[C@H](O)[C@@]1(C)CC[C@H](C(C)(C)O)O1)[C@H]1CC[C@H]2O[C@@H]([C@]3(C)CC[C@@H](Br)C(C)(C)O3)CC[C@]2(C)O1 [DEHYDROTHYRSIFEROL]	is not an inhibitor [-]
94.6	O=c1c(-c2ccc(O)cc2)coc2cc(O)cc(O)c12 [GENISTEIN]	
